Test results published in US6660737B2, “Medicinal uses of hydrazones” (The Procter & Gamble Company, priority 2001, dated 2003).

System: VEGF
Experiment: VEGF-ELISA assay: VEGF secretion from HL-1 cardiomyocyte cell line
Type: cell-based, Murine
Conditions: HL-1 cells, 18 hr, VEGF in conditioned media by ELISA; read-out: EC50 (concentration of compound that induces the production of an amount of VEGF equal to half the maximum amount of VEGF induced by that compound)
Procedure: ^1EC50 is the concentration of compound that induces the production of an amount of VEGF equal to half the maximum amount of VEGF induced by that compound.
Any compound of the present invention can be screened by a VEGF-ELISA assay. VEGF secretion is assayed in the HL-1 cardiomyocyte cell line as described in Claycomb, W. C., “HL-1 cells: a cardiac muscle cell line that contracts and retains phenotypic characteristics of the adult cardiomyocyte”, Proc. Natl. Acad. Sci U.S.A., Vol. 95, pp. 2979-84 (1998). For experiments, HL-1 cells are plated in 96-well plates at a density of 2×10^4 cells per well in growth medium: EXCEL 320 media (JRH Biosciences, Lenexia, Kans.) plus 10% fetal bovine serum (BioWhitaker), 100 nM retinoic acid (Sigma, St Louis, Mo.), 10 μM norepinephrine (Sigma), 10 μg/ml insulin (Life Technologies, Grand Island, N.Y.), 1× non-essential amino acid supplement (Life Technologies), 50 μg/ml endothelial cell growth supplement (Upstate Biotechnology, Lake Placid, N.Y.), 100 units/ml penicillin, 100 units/mil streptomycin (Life Technologies). After 24 hrs, the media is replaced with a low-growth media (HL-1 media with 2% fetal bovine serum and without endothelial cell growth supplement) containing test compounds with 0.5% dimethyl sulfoxide (DMSO). After 18 hrs, conditioned media from the treated cells was assayed for VEGF content with a Murine VEGF-ELISA kit (R & D Systems, Minneapolis, Minn.). The amount of VEGF secreted into the media over an 18 hr period is normalized to positive control wells which are treated with a maximally effective concentration (1 mM) of deferoxamine mesylate (Sigma, St. Louis) and are reported as “percent activity,” where the VEGF in unstimulated wells is defined as 0% and the VEGF in wells treated with 1 mM deferoxamine is defined as 100%. Potency is determined by stimulating cells with 10 concentrations of test compounds (200 nM to 100 μM) and fitting the data to a variable slope sigmoidal dose-response curve using GraphPad Prism version 3.00 for Windows 95 (GraphPad Software, San Diego, Calif.). Determinations for each test compound are performed in three separate experiments and the means ±standard deviation of the Log(EC50) and maximum response are evaluated. Compounds for pharmaceutical use are selected based upon the greatest percent activity.

Row | SMILES | EC50
1 | CN(/N=C/c1ccccn1)c1ccccn1 [Example 3, N-methyl-N-pyridin-2-yl-N′-pyridin-2-ylmethylene-hydrazine] | 0.75 µM
2 | C(=N\Nc1nc2ccccc2s1)/c1ccccn1 [Example 6, N-Benzothiazol-2-yl-N′-pyridin-2-ylmethylene-hydrazine] | 1.5 µM
3 | C(=N\Nc1ccccn1)/c1ccccn1 [Example 1, N-Pyridin-2-yl-N′-2-ylmethylene-hydrazine] | 1.6 µM
4 | FC(F)(F)c1cc(C(F)(F)F)c2ccc(N/N=C/c3ccccn3)nc2n1 [Example 8, N-(5,7-Bis-trifluoromethyl-[1,8]naphthyridin-2-yl)-N′-pyridin-2-ylmethylene-hydrazine] | 1.57 µM
5 | c1ccc(CNNc2ccccn2)nc1 [Example 4, N-Pyridin-2-yl-N′-pyridin-2-ylmethyl-hydrazine] | 5.7 µM
6 | Cc1ncc(CO)c(/C=N/Nc2ccccn2)c1O [Example 22, 5-Hydroxymethyl-2-methyl-4-(pyridin-2-yl-hydrazonomethyl)-3-ol] | 1.77 µM
7 | Oc1ccccc1/C=N/Nc1nccnc1Cl [Example 19, 2-[(3-Chloro-pyrazin-2-yl)-hydrazonomethyl]-phenol] | 15 µM
8 | C/C(=N\Nc1ccc(C(F)(F)F)cc1)c1ccccn1 [Example 13, N-(1-Pyridin-2-yl-ethylidene)-N′-(4-trifluoromethyl-phenyl)-hydrazine] | 4.3 µM
9 | Oc1ccc(/C=N/Nc2nccnc2Cl)c(O)c1 [Example 21, 4-[(3-Chloro-pyrazin-2-yl)-hydrazonomethyl]-benzene-1,3-diol] | 10.3 µM
10 | Clc1ccc(N/N=C/c2ccccn2)nn1 [Example 9, N-(6-Chloro-pyridazin-3-yl)-N′-pyridin-2-ylmethylene-hydrazine] | 6.7 µM
11 | Oc1ccccc1/C=N/Nc1ccccc1 [Example 18, 2-(Phenyl-hydrazonomethyl)-phenol] | 14 µM
12 | C/C(=N\Nc1nc(C)cc(C)n1)c1ccccn1 [Example 12, N-(4,6-Dimethyl-pyrimidin-2-yl)-N′-(1-pyridin-2-yl-ethylidien)-hydrazine] | 4.78 µM
13 | CN(/N=C/c1ccccn1)c1ncc(C(F)(F)F)cc1Cl [Example 11, N-(3-Chloro-5-trifluoromethyl-pyridin-2-yl)-N-methyl-N′pyridin-2-ylmethylene-hydrazine] | 15 µM
14 | Oc1ccc(/C=N/Nc2nc(N3CCCC3)nc(N3CCCC3)n2)cc1O [Example 28, 4-[(4,6-Di-pyrrolidin-1-yl-[1,3,5]triazin-2-yl)-hydrazonomethyl]-benzene-1,2-diol] | 1.1 µM
15 | Cc1cccc(/C=N/Nc2ccccn2)n1 [Example 25, N-(6-Methyl-pyridin-2-ylmethylene)-N′-pyridin-2-yl-hydrazine] | 28.6 µM
16 | C/C(=N\N(C)c1ccccn1)c1ccccn1 [Example 5, N-Methyl-N-pyridin-2-yl-N′-(1-pyridin-2-yl-ethylidene)-hydrazine] | 26.2 µM
17 | FC(F)(F)c1cnc(N/N=C/c2ccccn2)c(Cl)c1 [Example 10, N-(3-Chloro-5-trifluoromethyl-pyridin-2-yl)-N′-pyridin-2-ylmethylene-hydrazine] | 1.56 µM
18 | COc1cccc(/C=N/Nc2ccccn2)c1O [Example 23, 2-Methoxy-6-(pyridin-2-yl-hydrazonomethyl)-phenol] | 7 µM
19 | Oc1ccccc1/C=N/Nc1ccccn1 [Example 20, 2-Pyridyl-(2-hydroxy-benzylidene)-hydrazide] | 5.7 µM
20 | Cc1ccccc1/C=N/Nc1ccccc1 [Example 17, N-(2-Methyl-benzylidene)-N′-phenyl-hydrazine] | 15 µM
21 | C/C(=N\Nc1nnc2c(n1)[nH]c1ccccc12)c1ccccn1 [Example 15, N-(1-Pyridin-2-yl-ethylidene)-N-(9H-1,3,4,9-tetraaza-fluoren-2-yl)-hydrazine] | 0.36 µM
22 | Cc1cccc(/C=N/Nc2ccc(Cl)nn2)n1 [Example 26, N-(6-Chloro-pyridazine-3-yl)-N′-(6-methyl-pyridin-2-ylmethylene)-hydrazine] | 40 µM
23 | C(=N\Nc1ccccc1)/c1ccccn1 [Example 16, N-Phenyl-N′-pyridin-2-ylmethylene-hydrazine] | 13 µM
24 | C(=N\Nc1nnc2c(n1)[nH]c1ccccc12)/c1ccccn1 [Example 14, N-Pyridin-2-ylmethylene-N′-(9H-1,3,4,9-tetraaza-fluoren-2-yl)-hydrazine] | 2.3 µM
25 | C(=N\Nc1ccc2ccccc2n1)/c1ccccn1 [Example 7, N-Pyridin-2-ylmethylene-N′-quinolin-2-yl-hydrazine] | 3.15 µM
26 | Cc1sc2ncnc(N/N=C/c3c(O)ccc4ccccc34)c2c1C [Example 27] | 1.8 µM
27 | C/C(=N\Nc1ccccn1)c1ccccn1 [Example 2, N-Pyridin-2-yl-N′-(1-pyridin-2-yl-ethylidene)hydrazine] | 0.65 µM
